Test results as given in US20260315446A1, “ANTIFUNGAL COMPOUNDS AND USES THEREOF” (priority 2023, published 2026).
pIC50: −log10 of the molar value. Converted amounts (≈) assume the structure as drawn. Read-outs that look alike come from different tables or passages of the source.

Columns and labels:
Cryptococcus neoformans = assay: MIC assay (Example 3); assay type: cell-based; conditions: Cryptococcus neoformans
Description: (§1) In vitro antifungal activity was assessed for all fungal strains in RPMI 1640 (Sigma-Aldrich R1383). MICs were measured using Clinical and Laboratory Standards Institute (CLSI) M38-A2 and M27-A3 standard in vitro antifungal susceptibility protocols. C. neoformans and A. fumigatus testing was performed at 37° C. MECs for A. fumigatus were recorded after 48 h of growth. C. albicans testing was performed at 30° C. with a uniform concentration of 2 μg/mL of fluconazole to sensitize the cells to calcineurin inhibition.
(§2) C. neoformans clinical isolate H99 and congenic-derived strain KN99α were used (see, Nielsen K, et al., 2003. Infect Immun 71:4831-4841). KN99α-derived frr1Δ deletion mutants with nourseothricin resistance markers as part of the Madhani deletion collection (NIH funding R01AI100272) were used. C. deneoformans strains used include JEC21 and derived C21F2 (CNB1-1) and C21F3 (frr1-3) strains (see, Odom A, et al., 1997. EMBO J 16:2576-2589; Moore T D, Edman J C. 1993. Mol Cell Biol 13:1962-1970; Fox D S, et al., 2001. Mol Microbiol 39:835-849). C. albicans strain SC5314 is the wild-type strain from which mutants YAG171 (rbp1/rbp1) and YAG237 (CNB1-1/CNB1) were derived (see, Cruz M C, et al., 2001. Antimicrob Agents Chemother 45:3162-3170). A. fumigatus strain akuB^Ku80 and a derived FKBP12 mutant fkbp12A were used during antifungal screening (see, Falloon K, et al., 2015. PLoS One 10:e0137869).

[1] = system: IL-2 expression in primary mouse CD4+ T cells (mammalian calcineurin); assay: In vitro immunosuppressive activity, IL-2 expression (Example 3); assay type: cell-based; conditions: 72 h
Description: Modifications at the C-22 position reduce inhibition of mammalian calcineurin signaling Mammalian calcineurin inhibition was then assessed and found to be reduced for these FK520 analogs. The inhibition of mammalian calcineurin was assessed by measuring the reduction of IL-2 expression from primary mouse CD4^+ T cells cultured in the presence of FK506, FK520, or an analog. Calcineurin activity is required for T cell activation and cytokine production, and IL-2 production serves as an effective measure of mammalian calcineurin activity. After culturing mouse CD4′ T cells for 72 h, IL-2 expression was analyzed by flow cytometry to evaluate the immunosuppressive activity of the analogs. […] However, compound concentrations that permit high IL-2 expression are less likely to result in cell death.
Spleen and lymph nodes from C57BL/6 mice were collected and homogenized through a 40-μm filter. Pan-CD4^+ T cells were enriched using the MagniSort Mouse CD4 T Cell Enrichment Kit (Invitrogen). Thereafter, CD4^+CD25^−CD62L^hiCD44^lo naïve CD4^+ T cells were FACS-sorted using a MoFlo Astrios cell sorter (Beckman Coulter). Naïve CD4^+ T cells were cultured in Iscove's Modified Dulbecco's Medium supplemented with 10% fetal bovine serum (FBS), penicillin (10 U/mL), streptomycin (10 μg/mL), glutamine (2 mM), gentamicin (50 μg/mL), and β-mercaptoethanol (55 μM). Cells were cultured for 72 h on anti-hamster IgG-coated plates with hamster anti-CD3s antibodies, hamster anti-CD28 antibodies, neutralizing anti-IL-4 antibodies, recombinant IL-12 (10 ng/mL), and recombinant IL-2 (50 U/mL). During this culture, cells were incubated with serially diluted drugs suspended in DMSO.

[2] = Solubility in microdilution broth assays; assay type: physicochemical
Description: FIG. 12: Low-solubility compounds in MIC assay. Representative image of MIC assay read by plate reader with growth indicated on a range from 0.04 to 0.1 OD, black to green coloration. Starting concentration 50 μg/mL for all drugs. (A) H99 cultured in wells, and (B) wells contain RPMI media and no fungal cells with green coloration indicative of false positive growth caused by drug insolubility.
To assess antifungal activity, the panel of compounds was tested for fungal growth inhibition using minimum inhibitory concentration (MIC) assays against C. neoformans and C. albicans and minimum effective concentration (MEC) assays against A. fumigatus. […] MEC values against A. fumigatus ranged from 0.6 to 2.5 μg/mL for 10 of the analogs tested. […] Overall, a majority of these analogs maintain relatively potent antifungal activity across species and represent an active library for further investigation.

cryptococcosis = conditions: cited from earlier work
[3] = system: C. neoformans growth versus IL-2 in murine T cells; assay: Therapeutic index score (immunosuppressive fold change to antifungal fold change relative to FK506); design: species or system Cryptococcus neoformans; mouse; conditions: Example 3; C. neoformans H99, FK506 = 1.0
Description: To assess the therapeutic potential for these compounds, it was important to develop an approach to score and rank them based on antifungal and immunosuppressive activities. The therapeutic index score (TIscore) is a ratio of the immunosuppressive fold change to the antifungal fold change, with all values relative to the baseline FK506 activity (FIG. 6B). A TIscore of >1.0 indicates an increase in fungal specificity because the fold change of the immunosuppressive reduction is greater than the antifungal activity reduction. As an example, JH-FK-05 is 20-fold reduced for antifungal activity but about 180-fold reduced for immunosuppression. Therefore, the TIscore of JH-FK-05 is 9.1 (TIscore=182/20). The top two analogs were JH-FK-02 (TIscore=9.7) and JH-FK-05 (TIscore=9.1). Due to the similar TIscore, JH-FK-05 was prioritized to advance to animal trials on the merit of more pronounced antifungal activity compared to JH-FK-02.
Based on the in vitro fungal and mammalian calcineurin inhibition data, the panel of FK520 analogs was assessed and ranked. Therapeutic index (TI) scores were used to quantify the effects of structural modification on the compounds (Table 8). Therapeutic index scores were calculated for each analog as the ratio of relative change in immunosuppressive and antifungal activities compared to FK506 as previously utilized (see, I-Toy M J, et at. 2022. mBio 13:e0104922). This ratio of therapeutic benefit and host toxicity, or fungal and mammalian calcineurin inhibition, allowed us to quantify and rank these analogs. […] This is the greatest TI found within the library and allowed us to identify JH-FK-08 as a lead candidate for an in vivo study. Tolerability of JH-FK-08 was assessed by monitoring animal responses to drug dosing across 14 days, including changes in weight, fur condition, and behavior. A maximum dose of 40 mg/kg was tested in once a day dosing, and due to solubility limitations, the tolerability of JH-FK-08 at 60 and 80 mg/kg total daily doses was assessed by dosing two equal doses per day (FIG. 14). […] It should be noted that analogs JH-FK-12 and JH-FK-23 are also promising candidates with respective Tis of 24.7 and 24.5.

Candida albicans = assay: MIC assay (Example 3); assay type: cell-based; conditions: Candida albicans, SC5314; MIC80, 30° C. with 2 μg/mL fluconazole; read-out: MIC against Candida albicans (SC5314)
Description: as §1, §2

Aspergillus fumigatus = assay: MEC assay (Example 3); conditions: strain akuB^Ku80
[4] = MIC90, 37° C., read-out: MIC against Cryptococcus neoformans (H99)

Row | SMILES | MIC (Cryptococcus neoformans; Table 8, read-out: H99 MIC90) [µg/mL] | pIC50 [1] | solubility during microdilution broth assays [2] | interaction with fluconazole in pulmonary cryptococcosis model (cryptococcosis; in vivo combination therapy with fluconazole) | fungal burden in animal model of cryptococcosis (cryptococcosis; in vivo) | Therapeutic index [3] | MIC (Candida albicans) [µg/mL] | MIC (Cryptococcus neoformans; [4]) [µg/mL] | MEC against Aspergillus fumigatus (akuB^Ku80) (Aspergillus fumigatus) [µg/mL]
1 | CC[C@@H]1/C=C(\C)C[C@H](C)C[C@H](OC)[C@H]2O[C@@](O)(C(=O)C(=O)N3CCCC[C@H]3C(=O)O[C@H](/C(C)=C/C3CC[C@@H](O)[C@H](OC)C3)[C@H](C)[C@@H](O)C/C1=N/NS(=O)(=O)c1ccc(C)cc1)[C@H](C)C[C@@H]2OC (stereo partly shown) [JH-FK-13] | > 50 | < 6.70 | exhibited solubility issues | – | – | – | – | – | –
2 | C=CC[C@@H]1/C=C(\C)C[C@H](C)C[C@H](OC)[C@H]2O[C@@](O)(C(=O)C(=O)N3CCCC[C@H]3C(=O)O[C@H](/C(C)=C/[C@@H]3CC[C@@H](O)[C@H](OC)C3)[C@H](C)[C@@H](O)CC1=NNC(C)=O)[C@H](C)C[C@@H]2OC [JH-FK-01] | – | – | – | benefits from this synergistic interaction | significantly reduced fungal burden | – | – | – | –
3 | CC[C@@H]1/C=C(\C)C[C@H](C)C[C@H](OC)[C@H]2O[C@@](O)(C(=O)C(=O)N3CCCC[C@H]3C(=O)O[C@H](/C(C)=C/C3CC[C@@H](O)[C@H](OC)C3)[C@H](C)[C@@H](O)C/C1=N/NC(=O)c1ccc3ccccc3c1)[C@H](C)C[C@@H]2OC (stereo partly shown) [JH-FK-15] | 3.1 (≈ 3.23 µM) | 7.76 | exhibited solubility issues | – | – | 3.1 | 0.4 (≈ 0.417 µM) | 3.1 (≈ 3.23 µM) | 0.3
4 | CC[C@@H]1/C=C(\C)C[C@H](C)C[C@H](OC)[C@H]2O[C@@](O)(C(=O)C(=O)N3CCCC[C@H]3C(=O)O[C@H](/C(C)=C/C3CC[C@@H](O)[C@H](OC)C3)[C@H](C)[C@@H](O)C/C1=N/NC(=O)c1ccc(F)cc1)[C@H](C)C[C@@H]2OC (stereo partly shown) [JH-FK-17] | 0.4 (≈ 0.431 µM) | 8.03 | exhibited solubility issues | – | – | 13.1 | 0.4 (≈ 0.431 µM) | 0.4 (≈ 0.431 µM) | 1.3
